Data reported in PubChem BioAssay AID248 (DTP/NCI, 2004).
Toxic doses and inconclusive results are not listed.

Tested on: L1210 leukemia ip in BDF1 mice, survival T/C
Test: NCI In Vivo Anticancer Drug Screen. Data for tumor model L1210 Leukemia (intraperitoneal) in B6D2F1 (BDF1) mice
Details: endpoint: mean survival time, higher = longer survival
Method in brief: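 Antitumor effect is assessed in tumor-bearing animals. Survival in the compound arm is compared with a vehicle-dosed control arm and expressed as their quotient.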

[1] = dose: 100.0 mg/kg/injection, schedule: Q01DX009 (ip), vehicle: Klucel (hydroxypropylcellulose) (HPC)
[2] = dose: 100.0 mg/kg/injection, schedule: Q04DX003 (ip), vehicle: Klucel (hydroxypropylcellulose) (HPC)
[3] = dose: 200.0 mg/kg/injection, schedule: Q01DX009 (ip), vehicle: Klucel (hydroxypropylcellulose) (HPC)
[4] = dose: 200.0 mg/kg/injection, schedule: Q04DX003 (ip), vehicle: Klucel (hydroxypropylcellulose) (HPC)
[5] = dose: 400.0 mg/kg/injection, schedule: Q01DX009 (ip), vehicle: Klucel (hydroxypropylcellulose) (HPC)
[6] = dose: 400.0 mg/kg/injection, schedule: Q04DX003 (ip), vehicle: Klucel (hydroxypropylcellulose) (HPC)
[7] = dose: 100.0 mg/kg/injection, schedule: Q04DX002 (ip), vehicle: Klucel (hydroxypropylcellulose) (HPC)
[8] = dose: 100.0 mg/kg/injection, schedule: Q04DX003 (ip), vehicle: saline
[9] = dose: 200.0 mg/kg/injection, schedule: Q04DX003 (ip), vehicle: saline
[10] = dose: 100.0 mg/kg/injection, schedule: Q01DX001 (ip), vehicle: carboxymethylcellulose (CMC)
[11] = dose: 200.0 mg/kg/injection, schedule: Q01DX001 (ip), vehicle: carboxymethylcellulose (CMC)
[12] = dose: 50.0 mg/kg/injection, schedule: Q01DX009 (ip), vehicle: saline
[13] = dose: 100.0 mg/kg/injection, schedule: Q01DX009 (ip), vehicle: saline
[14] = dose: 200.0 mg/kg/injection, schedule: Q01DX009 (ip), vehicle: saline
[15] = dose: 400.0 mg/kg/injection, schedule: Q04DX003 (ip), vehicle: saline
[16] = dose: 100.0 mg/kg/injection, schedule: Q01DX001 (ip), vehicle: saline
[17] = dose: 200.0 mg/kg/injection, schedule: Q01DX001 (ip), vehicle: saline
[18] = dose: 400.0 mg/kg/injection, schedule: Q01DX001 (ip), vehicle: saline

In the case of CCCCNC(=O)Nc1ccc(OC)cc1, the T/C [1] is reported as 103 % of control, the T/C [2] is reported as 96 % of control and the T/C [3] is reported as 92 % of control. For the same compound, the T/C [4] was 93 % of control, the T/C [5] was 90 % of control and the T/C [6] was 102 % of control.
CCOC(=O)C1CN(S(=O)(=O)c2ccc(C)cc2)c2ccccc2C(=O)C1/C(=C/C(=O)OC)C(=O)OC (stereo unspecified) was tested, and the T/C [2] was 96 % of control, the T/C [4] was 94 % of control and the T/C [6] was 86 % of control.
Nc1ccc(OC(F)(F)C(F)Cl)cc1 (stereo unspecified) was tested, and the T/C [1] was 97 % of control, the T/C [2] was 97 % of control and the T/C [3] was 99 % of control. The T/C [4] was 100 % of control, the T/C [5] was 116 % of control and the T/C [6] was 101 % of control.
For O=C(O)c1cccc([N+](=O)[O-])c1, the T/C (dose: 50.0 mg/kg/injection, schedule: Q04DX002 (ip), vehicle: Klucel (hydroxypropylcellulose) (HPC)) was 88 % of control and the T/C [7] was 94 % of control.
Cc1ccccc1/C(=C/c1ccc([N+](=O)[O-])cc1)C(=O)O was tested, and the T/C [1] was 95 % of control, the T/C [3] was 108 % of control and the T/C [5] was 104 % of control.
CC1CCC2(C)CCC3(C)C(=CCC4C5(C)CCC(OC(=O)c6ccccc6)C(C)(C)C5CCC43C)C2C1C (stereo unspecified) was tested, and the T/C (dose: 100.0 mg/kg/injection, schedule: Q01DX001 (ip), vehicle: saline with Tween-80) was 96 % of control and the T/C (dose: 200.0 mg/kg/injection, schedule: Q01DX001 (ip), vehicle: saline with Tween-80) was 102 % of control.
CC(C)N=Cc1ccccc1O.CC(C)N=Cc1ccccc1O.[Ni] was tested, and the T/C (dose: 6.25 mg/kg/injection, schedule: Q04DX003 (ip), vehicle: saline sonified) was 92 % of control, the T/C (dose: 12.5 mg/kg/injection, schedule: Q04DX003 (ip), vehicle: saline sonified) was 101 % of control and the T/C (dose: 25.0 mg/kg/injection, schedule: Q04DX003 (ip), vehicle: saline sonified) was 108 % of control. The T/C [8] was 86 % of control.
In the case of Cc1ccc2c(c1)SP(=S)(c1ccccc1)N2 (stereo unspecified), the T/C (dose: 15.0 mg/kg/injection, schedule: Q01DX Z (ip), vehicle: saline) is reported as 100 % of control and the T/C (dose: 25.0 mg/kg/injection, schedule: Q01DX Z (ip), vehicle: saline) is reported as 89 % of control.
For CCOc1ccccc1NC(=O)c1c(Br)c(Br)c(Br)c(Br)c1C(=O)O, the T/C [1] was 102 % of control and the T/C [3] was 102 % of control.
With Cc1ccc(O)cn1 the T/C (dose: 100.0 mg/kg/injection, schedule: Q04DX003 (ip), vehicle: saline with Tween-80) was 100 % of control, the T/C (dose: 200.0 mg/kg/injection, schedule: Q04DX003 (ip), vehicle: saline with Tween-80) was 96 % of control and the T/C (dose: 400.0 mg/kg/injection, schedule: Q04DX003 (ip), vehicle: saline with Tween-80) was 103 % of control.
In the case of CCN(CC)CC(=O)NCC(CC)(CCN1CCOCC1)c1cccc2ccccc12 (stereo unspecified), the T/C [8] is reported as 97 % of control and the T/C [9] is reported as 95 % of control.
In the case of COc1ccc(C)cc1OC(CCC(C)C)C(C)=O (stereo unspecified), the T/C (dose: 75.0 mg/kg/injection, schedule: Q01DX001 (ip), vehicle: carboxymethylcellulose (CMC)) is reported as 93 % of control, the T/C (dose: 150.0 mg/kg/injection, schedule: Q01DX001 (ip), vehicle: carboxymethylcellulose (CMC)) is reported as 96 % of control and the T/C (dose: 300.0 mg/kg/injection, schedule: Q01DX001 (ip), vehicle: carboxymethylcellulose (CMC)) is reported as 90 % of control.
CCCC1=NNC(=O)C1 was tested, and the T/C [10] was 100 % of control, the T/C [11] was 100 % of control and the T/C (dose: 400.0 mg/kg/injection, schedule: Q01DX001 (ip), vehicle: carboxymethylcellulose (CMC)) was 96 % of control.
Cc1ccc(-c2ccc(C)cc2)cc1 was tested, and the T/C [2] was 98 % of control, the T/C [4] was 95 % of control and the T/C [6] was 98 % of control.
With Nc1nc2ncc(=O)[nH]c2c(=O)[nH]1 the T/C [12] was 106 % of control, the T/C (dose: 50.0 mg/kg/injection, schedule: Q04DX003 (ip), vehicle: saline) was 103 % of control and the T/C [13] was 101 % of control. For the same compound, the T/C [8] was 100 % of control, the T/C [14] was 87 % of control and the T/C [9] was 106 % of control. For the same compound, the T/C [15] was 122 % of control.
For Cc1nc2cnn(C)c2nc1C, the T/C [12] was 101 % of control, the T/C [13] was 97 % of control and the T/C [8] was 106 % of control. The T/C [14] was 88 % of control and the T/C [9] was 100 % of control.
In the case of Oc1ccccc1C1CCCCC1, the T/C (dose: 12.5 mg/kg/injection, schedule: Q01DX009 (ip), vehicle: gum acacia) is reported as 102 % of control, the T/C (dose: 25.0 mg/kg/injection, schedule: Q01DX009 (ip), vehicle: gum acacia) is reported as 100 % of control and the T/C (dose: 50.0 mg/kg/injection, schedule: Q01DX009 (ip), vehicle: gum acacia) is reported as 98 % of control.
With NC(CSS(=O)(=O)O)=NCCCOCc1ccccc1 the T/C (dose: 12.5 mg/kg/injection, schedule: Q04DX002 (ip), vehicle: Klucel (hydroxypropylcellulose) (HPC)) was 103 % of control and the T/C (dose: 25.0 mg/kg/injection, schedule: Q04DX002 (ip), vehicle: Klucel (hydroxypropylcellulose) (HPC)) was 93 % of control.
COc1cc(CCC(=O)O)cc(/C=N/NC(N)=O)c1O was tested, and the T/C [16] was 101 % of control, the T/C [17] was 89 % of control and the T/C [18] was 95 % of control.
In the case of CS(=O)(=O)OC/C(Br)=C/Br, the T/C [10] is reported as 103 % of control and the T/C [11] is reported as 101 % of control.
With CCN(CC)c1cccc(OC(=O)Nc2ccc(SC)cc2)c1 the T/C (dose: 100.0 mg/kg/injection, schedule: Q01DX009 (ip), vehicle: saline with Tween-80) was 95 % of control, the T/C (dose: 200.0 mg/kg/injection, schedule: Q01DX009 (ip), vehicle: saline with Tween-80) was 103 % of control and the T/C (dose: 400.0 mg/kg/injection, schedule: Q01DX009 (ip), vehicle: saline with Tween-80) was 97 % of control.
With COc1ccc(-c2csc(-c3ccccc3)n2)cc1N=Cc1ccc(N(CCCl)CCCl)c(OC)c1 the T/C (dose: 0.96 mg/kg/injection, schedule: Q01DX009 (ip), vehicle: acetone) was 106 % of control, the T/C (dose: 1.4 mg/kg/injection, schedule: Q01DX009 (ip), vehicle: acetone) was 103 % of control and the T/C (dose: 5.0 mg/kg/injection, schedule: Q01DX015 (ip), vehicle: carboxymethylcellulose (CMC)) was 120 % of control. For the same compound, the T/C (dose: 8.0 mg/kg/injection, schedule: Q01DX015 (ip), vehicle: carboxymethylcellulose (CMC)) was 113 % of control, the T/C (dose: 10.0 mg/kg/injection, schedule: Q01DX009 (ip), vehicle: acetone) was 154 % of control and the T/C (dose: 20.0 mg/kg/injection, schedule: Q01DX009 (ip), vehicle: acetone) was 166 % of control. For the same compound, the T/C (dose: 20.0 mg/kg/injection, schedule: Q01DX015 (ip), vehicle: carboxymethylcellulose (CMC)) was 153 % of control, the T/C (dose: 40.0 mg/kg/injection, schedule: Q01DX009 (ip), vehicle: acetone) was 102 % of control and the T/C (dose: 66.0 mg/kg/injection, schedule: Q01DX015 (ip), vehicle: carboxymethylcellulose (CMC)) was 101 % of control. For the same compound, the T/C (dose: 100.0 mg/kg/injection, schedule: Q01DX015 (ip), vehicle: carboxymethylcellulose (CMC)) was 104 % of control.
With Nc1c(Cl)ncn2[nH]c(=O)nc12 the T/C [10] was 96 % of control and the T/C [11] was 100 % of control.
For CNC(=O)N(C)Cc1ccco1, the T/C (dose: 50.0 mg/kg/injection, schedule: Q01DX009 (ip), vehicle: Klucel (hydroxypropylcellulose) (HPC)) was 91 % of control, the T/C [1] was 102 % of control and the T/C [3] was 101 % of control.
For O=C(CCl)N1CCN(C(=O)CCl)c2ccccc21, the T/C [16] was 94 % of control, the T/C [17] was 94 % of control and the T/C [18] was 97 % of control.
With CCOC(=O)NC(C(=O)OC)C(=O)OC the T/C [1] was 97 % of control, the T/C [8] was 100 % of control and the T/C [3] was 97 % of control. The T/C [9] was 97 % of control, the T/C [5] was 97 % of control and the T/C [15] was 100 % of control.
O=C(O)COc1cc(F)c([N+](=O)[O-])cc1[N+](=O)[O-] was tested, and the T/C [7] was 90 % of control and the T/C (dose: 200.0 mg/kg/injection, schedule: Q04DX002 (ip), vehicle: Klucel (hydroxypropylcellulose) (HPC)) was 97 % of control.
In the case of BrCc1cccc2cccc(CBr)c12, the T/C (dose: 50.0 mg/kg/injection, schedule: Q04DX003 (ip), vehicle: Klucel (hydroxypropylcellulose) (HPC)) is reported as 97 % of control, the T/C (dose: 100.0 mg/kg/injection, schedule: Q01DX001 (ip), vehicle: Klucel (hydroxypropylcellulose) (HPC)) is reported as 113 % of control and the T/C [2] is reported as 101 % of control. The T/C (dose: 200.0 mg/kg/injection, schedule: Q01DX001 (ip), vehicle: Klucel (hydroxypropylcellulose) (HPC)) was 111 % of control and the T/C [4] was 103 % of control.
CC12CC3CC(Br)(C1)CC(C(=O)O)(C3)C2 (stereo unspecified) was tested, and the T/C [12] was 103 % of control, the T/C [13] was 96 % of control and the T/C [8] was 103 % of control. For the same compound, the T/C [14] was 91 % of control, the T/C [9] was 101 % of control and the T/C [15] was 110 % of control.
